Like-named read-outs stand apart in the source and are kept apart here. Ends that are not written are not given here.
Columns and labels:
occludin = experiment: Occludin mRNA in ileum (RT-qPCR), carbon tetrachloride plus LPS mice; assay type: in vivo, BALB/c mice; details: LPS 0.3 mg/kg i.p. for 2 weeks
Procedure: The tight junction proteins are essential components of intestinal epithelial cells and the innate immune system. In one experiment, adult male BALB/c mice were intraperitoneally injected with carbon tetrachloride (CC14, 1.0-2.5 ml/kg body weight) for 2 weeks. Then, some mice were given lipopolysaccharides (LPS, 0.3 mg/kg, i.p.) for an additional 2 weeks.

Muc-2 = Muc-2 mRNA in ileum (RT-qPCR), carbon tetrachloride plus LPS mice; assay type: in vivo, BALB/c mice; details: LPS 0.3 mg/kg i.p. for 2 weeks
Procedure: In one experiment, adult male BALB/c mice were intraperitoneally injected with escalated dosage of carbon tetrachloride (CC14 from 1.0 to 2.5 ml/kg body weight) for an additional 2 weeks. Then, some mice were given lipopolysaccharides (LPS, 0.3 mg/kg, i.p.) for an additional 2 weeks.

interleukin-1β (IL-1β) = experiment: IL-1β mRNA in liver, carbon tetrachloride plus LPS mice; assay type: in vivo, BALB/c mice; details: LPS 0.3 mg/kg i.p. for 2 weeks on carbon tetrachloride injury
Procedure: In one experiment, adult male BALB/c mice were intraperitoneally injected with escalated levels of carbon tetrachloride (CC14, 1.0-2.5 ml/kg body weight) for 2 weeks. Then, some mice were given lipopolysaccharides (LPS, 0.3 mg/kg, i.p.) for an additional 2 weeks. Under the condition, some mice were supplemented with cholestyramine at 3 w/w. % in the chow for an additional 4 weeks. […] It is known that PAMPs activate many types of cells to produce interleukin-1 (IL-1), leading to fever, cytokine storms, and tissue damage. In this current disclosure, the cationic polymer in the oral administration can be used for sequestration of intestinal endotoxins, which consequently can alleviate drug-induced liver inflammation, a common mechanism of action for many types of liver injury and fibrogenesis.

monocytes [1] = assay type: cell-based
[2] = Sirius Red staining of liver, carbon tetrachloride plus LPS mice; assay type: in vivo, BALB/c mice; details: LPS 0.3 mg/kg i.p. for 2 weeks on carbon tetrachloride injury
Procedure: In another experiment, adult male BALB/c mice were injected intraperitoneally with escalated dosage of carbon tetrachloride (CC14 from 1.0 to 2.5 ml/kg body weight) for 2 weeks. And then some mice were given lipopolysaccharides injection (LPS at 0.3 mg/kg, i.p.) for an additional 2 weeks. Under sustained injury conditions, some mice were supplemented with cholestyramine at 3% w/w in the chow for another 4 weeks. […] It is well known that hepatic injury induced activation of hepatic stellate cells (HSCs) mediate hepatic fibrosis.

type-1 collagen, α-1 = experiment: Type-1 collagen mRNA in liver, carbon tetrachloride plus LPS mice; assay type: in vivo, BALB/c mice; details: LPS 0.3 mg/kg i.p. for 2 weeks on carbon tetrachloride injury
Procedure: In one experiment, adult male BALB/c mice were intraperitoneally injected with escalated dosage of carbon tetrachloride (CC14, 1.0-2.5 ml/kg body weight) for 2 weeks. Then, some adult male BALB/c mice were given additional lipopolysaccharides (LPS, 0.3 mg/kg, i.p.) for 2 weeks. At such condition, some mice were supplemented with cholestyramine at 3%w/w in the chow for 4 weeks. […] In normal liver tissues, HSCs are quiescent, featured as storing vitamin A and producing type-4 collagen and other loose extracellular matrix (ECM). The high expression of collagen and the formation of fibrotic septa are common in various liver diseases. […] Endotoxemia is common in various hepatic fibrosis and cirrhosis, caused by alcohol, drugs, viruses (such as HBV and HCV), and immune system disorders. Therefore, the current disclosure can be applied for treatment of various forms of liver fibrosis.

[3] = tested on: α-defensin-5 (DEFA5) produced by Paneth cells; experiment: α-defensin-5 expression in ileum, carbon tetrachloride plus LPS mice; assay type: in vivo, BALB/c mice; details: LPS 0.3 mg/kg i.p. for 2 weeks
Procedure: In one experiment, adult male BALB/c mice were intraperitoneally injected with escalated dosage of carbon tetrachloride (CC14 from 1.0 to 2.5 ml/kg body weight) for 2 weeks. Then, some mice were given lipopolysaccharides (LPS, 0.3 mg/kg, i.p.) for an additional 2 weeks. […] Lower DEFA5 levels worsen gut microbiota into dysbiosis state, and conversely, increased level of endotoxin may contribute to liver inflammation, leading to tissue injury and fibrogenesis.

monocytes [4] = assay type: cell-based; details: Example 26, FIG. 22
gut microbiota = experiment: Distribution of bacterial microbiota in feces, carbon tetrachloride mice given DEFA5; assay type: in vivo, BALB/c mice; details: 10 mg twice a week for 8 weeks
Procedure: In one experiment, adult male BALB/c mice were given intraperitoneal injections of carbon tetrachloride for 4 weeks; while continuing administration of carbon tetrachloride, some mice were given the synthetic human α-defensin-5 (DEFA5) (10 mg, twice a week) for 8 weeks.

[5] = Bloodstream endotoxin (LAL test), carbon tetrachloride mice given DEFA5; assay type: in vivo, BALB/c mice; details: 10 mg twice a week for 8 weeks, continued carbon tetrachloride
Procedure: In one experiment, adult male BALB/c mice were given intraperitoneal injections of carbon tetrachloride for 4 weeks. While continuing administration of carbon tetrachloride, some mice were given the synthetic human α-defensin-5 (DEFA5) (10 mg, twice a week) for 8 weeks.

[6] = Intestinal permeability by FITC levels in bloodstream, carbon tetrachloride mice; assay type: in vivo, BALB/c mice; details: 10 mg twice a week for 8 weeks, continued carbon tetrachloride
Procedure: In one experiment, adult male BALB/c mice were given intraperitoneal injections of carbon tetrachloride for 4 weeks; while continuing administration of carbon tetrachloride, some mice were given the synthetic human α-defensin-5 (DEFA5) (10 mg, twice a week) for 8 weeks. Finally, the mice were given fluorescein isothiocyanate (FITC). […] Vitamin D deficiency affects the expression of the defensins secreted by Paneth cells, resulting in small intestinal bacterial overgrowth (SIBO) and the translocation of PAMPs into the bloodstream, thereby causing chronic inflammation. Therefore, the defensins, as a therapeutic API, can treat various gastrointestinal disease and alleviate drug-induced liver fibrosis.

[7] = Sirius Red staining for liver fibrosis, carbon tetrachloride mice given DEFA5; assay type: in vivo, BALB/c mice; details: oral 10 mg twice a week for 8 weeks, continued carbon tetrachloride
Text: Paneth cells secret innate immune substances, such as antimicrobial peptides, to maintain intestinal homeostasis. The epithelial cells of the small intestine and the innate immune substances maintain the gastrointestinal barrier function, protect against the penetration of commensal and pathogenic bacteria, and safeguard intestinal epithelial cells. The antimicrobial peptides can suppress the small intestinal overgrowth of bacteria (SIBO), a common pathologic condition for many metabolic diseases. In one experiment, adult male BALB/c mice were given intraperitoneal injections of carbon tetrachloride for 4 weeks. While continuing administration of carbon tetrachloride, some mice were orally given synthetic human α-defensin-5 (10 mg, twice a week) for an additional 8 weeks (shown in FIG. 26A). […] The mechanism of action by the DEFA5 as API can be explained in part by inhibiting PAMPs, thereby reducing liver inflammation and damage, which in turn reduces the transdifferentiation of HSC and lowers liver fibrosis score.

Substance | mRNA expression of occludin gene in ileum tissues (occludin) | mRNA expression of Muc-2 by Goblet cells in ileum tissue (Muc-2) | drug-induced hepatic inflammation, mRNA expression of IL-1B in the liver (interleukin-1β (IL-1β)) | increase of mRNA expression of TNF-α (monocytes [1]; Example 25, FIG. 21) | increase of mRNA expression of TNF-α (monocytes [1]; Example 27, FIG. 23) | drug-induced cirrhosis, fibrotic histological analysis (Sirius Red) [2] | drug-induced cirrhosis, type-I collagen mRNA (type-1 collagen, α-1) | expression levels of α-defensin-5 (DEFA5) in ileum tissue [3] | increase of mRNA expression of IL-1B (monocytes [4]) | balance of intestinal bacterial microbiota (gut microbiota; continued carbon tetrachloride) | abundance of Bacteroidetes (gut microbiota; feces) | abundance of Firmicutes (gut microbiota; feces) | abundance of gamma-Proteobacteria (gut microbiota; feces) | endotoxin translocation into the bloodstream [5] | intestinal permeability (FITC levels in bloodstream) [6] | liver fibrosis (Sirius Red) [7]
lipopolysaccharides [LPS] | suppressed the mRNA expression of occludin gene | reduced the mRNA expression of Muc-2 | exacerbates the drug-induced hepatic inflammation | about 8 times | about 10 times | exacerbate the drug-induced cirrhosis | exacerbates the drug-induced cirrhosis | suppressed the expression levels of α-defensin-5 (DEFA5) | about 9 times |  |  |  |  |  |  | 
α-defensin-5 (ATCYCRHGRCATRESLSGVCEISGRLYRLCC; not fully specified (bridges); also: three disulfide bonds) [DEFA5, ATCYCRHGRCATRESLSGVCEISGRLYRLCCR, three disulfide bonds; antimicrobial peptide of Paneth cells] |  |  |  |  |  |  |  |  |  | balanced the intestinal bacterial microbiota | increasing the abundance | reducing the abundance | reducing the abundance | reduced endotoxin translocation into the bloodstream | reduce intestinal permeability | reduced liver fibrosis caused by liver injury
